Measured values reported in ChEMBL document CHEMBL6103632, “Seven New Guanidine Derivatives and One New Hypoxanthine Derivative Isolated from the Scorpion Buthus martensii and Potential Anti-Neuroinflammatory Activity” (J Nat Prod, 2025).
The source made the active and inactive calls. The rule behind the calls is not given here.

Key:
[1] = Cytotoxicity against mouse BV-2 cells assessed as cell viability at 20 uM incubated for 24 hr by CCK-8 assay; format: toxicity, cell-based; settings: read-out: Activity
[2] = test system: BV-2; experiment: Antineuroinflammatory activity in LPS-induced mouse BV-2 cells assessed as reduction in IL-1beta level at 20 uM pretreated with LPS for 4 hrs followed by compound treatment for 24 hrs by ELISA analysis; format: functional, cell-based
[3] = test system: BV-2; experiment: Antineuroinflammatory activity in LPS-induced mouse BV-2 cells assessed as reduction in TNF-alpha level at 20 uM pretreated with LPS for 4 hrs followed by compound treatment for 24 hrs by ELISA analysis; format: functional, cell-based
[4] = test system: Mitochondrial membrane; experiment: Induction of mitochondrial membrane potential in LPS-induced mouse BV-2 cells assessed as reduction in ratio of red to green fluorescence intensity at 20 uM pretreated with LPS for 4 hrs followed by compound treatment for 24 hrs by JC-1 staining based assay; format: cell membranes
[5] = test system: BV-2; experiment: Antineuroinflammatory activity in LPS-induced mouse BV-2 cells assessed as reduction in IL-6 level at 20 uM pretreated with LPS for 4 hrs followed by compound treatment for 24 hrs by ELISA analysis; format: functional, cell-based
[6] = test system: BV-2; experiment: Antineuroinflammatory activity in LPS-induced mouse BV-2 cells assessed as reduction in ROS level pretreated with LPS for 4 hrs followed by compound treatment for 24 hrs by ROS probe based microscopy; format: functional, cell-based; settings: dose 20.0 µM

| SMILES | viability at 24 h, 20 µM [1] | also measured |
| --- | --- | --- |
| N=C(N)NCCCCNC(=O)Cc1cc(Cl)c(O)c(Cl)c1 | > 75% |  |
| CCC/C=C/C(=O)NCCCCNC(=N)N | > 75% |  |
| COc1cc(CC(=O)NCCCCNC(=N)N)ccc1O | > 75% | Activity [2]: Active; Activity [3]: Active; Activity [4]: Active; Activity [5]: Active |
| N=C(N)NCCCCNC(=O)Cc1ccccc1 | > 75% |  |
| N=C(N)NCCCCNC(=O)c1c[nH]c2ccccc12 | > 75% |  |
| N=C(N)NCCCCn1cnc2ccccc2c1=O | > 75% |  |
| COc1ccc2[nH]cc(CCNC(C)=O)c2c1 |  | Activity [6]: Dose-dependent-effect |
| N=C(N)NCCCCNC(=O)c1cccnc1 | > 75% |  |
| N=C(N)NCCCCNC(=O)Cc1ccc(O)c(Cl)c1 | > 75% |  |
| CC(=O)CC(C)(C)n1cnc2c(=O)[nH]cnc21 | > 75% |  |
| N=C(N)NCCCCNC(=O)c1ccc(O)cc1 | > 75% |  |
| N=C(N)NCCCCNC(=O)c1ccccc1 | > 75% |  |
| N=C(N)NCCCCNC(=O)Cc1ccc(O)cc1 | > 75% |  |
| N=C(N)NCCCCNC(=O)Cc1c[nH]c2ccccc12 | > 75% |  |
